Article PMC5108032, “Discovery of a Quinoline-4-carboxamide Derivative with a Novel Mechanism of Action, Multistage Antimalarial Activity, and Potent in Vivo Efficacy” (Journal of Medicinal Chemistry, 2016)

Columns and labels:
Mouse pharmacokinetics = format: in vivo, female NMRI mice; conditions: intravenous at 3 mg/kg
Procedure: (100 µl) was then removed from both acceptor and donor compartments and mixed with acetonitrile (80 µl) containing an internal standard. The samples were centrifuged (10 min, 5 °C, 3270 g) to sediment precipitated protein and sealed prior to UPLC-MS/MS analysis using a Quattro Premier XE (Waters Corp, USA). Pe was calculated as shown in the below equation:
Pe (nm/sec) = 107 x - In [1 - CA (t) / Cequi]
CA(t) = peak area of compound present in acceptor well at time t = 18000 sec Cequi = [CD(t) * VD + CA(t) * VA] / (VD + VA)
VA = acceptor well volume
CD(t) = peak area of compound present in donor well at time t = 18000 sec Recovery of compound from donor and acceptor wells was calculated and data was only accepted when recovery exceeded 70 %.
Human ether-à-go-go related gene (hERG) K+ assay (Outsourced)
Compounds were tested for inhibition of the human ether-à-go-go-related gene (hERG) K+ channel using IonWorks patch clamp electrophysiology. Eight-point concentration-response curves were generated on 2 occasions using 3-fold serial dilutions from the maximum final assay concentration.
Compound was dosed as a bolus solution intravenously (12) at 3mg free base/kg (dose volume: 5 mL/kg; dose vehicle: 10% DMSO, 90% saline) to female NMRI mice (n=3) or dosed orally (12 and 13) by gavage as a solution at 10 mg free base/kg (dose volume: 10mL/kg; Dose vehicle: 5 or 10% DMSO; 40% PEG400; 50 or 55% distilled water) to female NMRI mice (n=3/dose level). Female NMRI mice were chosen as these represent the sex and strain used for the P.berghei mouse model of malaria. Blood samples (10 µl) were taken from each mouse at 5, 15 and 30 minutes, 1, 2, 4, 6, and 8 hours post-dose, mixed with two volumes of distilled water and stored frozen until UPLC-MS/MS analysis. The level of each compound in mouse blood was determined by UPLC-MS/MS as previously reported.9 Pharmacokinetic parameters were derived from the blood concentration time curve using PKsolutions software v 2.0 (Summit Research Services, USA). […]

[1] = Intrinsic clearance (Cli) in human liver microsomes; format: in vitro ADME; conditions: human liver microsome
From the text: (§1) inhibition at top, C= EC50, D= slope, x= inhibitor concentration and y= % inhibition. […]
(§2) reach 100% of inhibition, B was fixed to 100 only when at least 50% of inhibition was reached.
(§3) Plasmodium falciparum late stage (IV-V) gametocyte high content imaging assay Plasmodium falciparum NF54-pfs16-LUC-GFP stage IV-V Gametocytes were produced as described previously.5 Compounds were solubilized in DMSO and serially diluted in three concentrations per log standard curves in DM SO. One µl of compound was subsequently diluted in 25µl of water (4% DMSO) and 5µl transferred into the base of 384 well PerkinElmer CellCarrier plates. Forty-five µl of stage IV-V gametocytes (10%P in 0.1%H) were added to the imaging plates which were in turn sealed with a gas permeable membrane and incubated at 37°C, 5% CO 2, 5% O2, 90% N2 and 60% humidity […]
(§4) Post incubation, 5µl of MitoTracker® Red CM -H2Xros (MTR) solution (0.66ug/ml) was added to all wells and the plates incubated for a further 16hours. The assay plates were then imaged and the number of viable gametocytes determined for test compounds plus 0.4%DMSO and 5µM Puromycin.
(§5) (0.4%DMSO) control values. Percent inhibition was plotted against log compound concentration using a 4 parameter log dose, non-linear regression analysis, with sigmoidal dose response (variable slope) curve fit using Prizm 4.0. IC50 values were obtained from this curve fit. The compound testing was performed in duplicate point within two separate experiments.
(§6) Plasmodium berghei ookinete development assay
(§7) Assay was performed as previously reported.6 Briefly blood containing P. berghei CTRPp-GFP gametocytes was rapidly harvested from infected mice and introduced to test compounds pre-diluted in ookinete medium (to induce gamete formation and support ookinete development) in 96-well plates. Plates were incubated in the dark at 21°C for 22 hr before GFP fluorescence intensity measured in a plate reader. % inhibition of ookinete formation was calculated with reference to the fluorescence intensity values of a positive control (20 µM cycloheximide) and a solvent-only negative control (DMSO). All assays were performed in triplicate independent experiments and EC50 values calculated in Graphpad Prism.
(§8) The aqueous solubility of the test compounds was measured using laser nephelometry, as described previously.7 Compounds were subject to serial dilution from 10 mg/mL to 0.5 mg/mL in DMSO. An aliquot was then mixed with MilliQ water to obtain an aqueous dilution plate with a final concentration range of 100 – 5 μg/mL, with a final DMSO concentration of 1.0%. Triplicate aliquots were transferred to a flat bottomed polystyrene plate which was immediately read on the NEPHELOstar (BMG Lab Technologies). The amount of laser scatter caused by insoluble particulates (relative nephelometry units, RNU) was plotted against compound concentration using a segmental regression fit, with the point of inflection being quoted as the compounds aqueous solubility (μg/mL; […]
(§9) Intrinsic Clearance (Cli) experiments
(§10) The procedure was carried out as reported previously.7 Test compound (0.5 µM) was incubated with female CD1 mouse, male sprague-dawley rat or pooled human mixed gender liver microsomes (Xenotech LLC TM; 0.5 mg/mL 50 mM potassium phosphate buffer, pH 7.4) and the reaction initiated […]
(§11) by the addition of excess NADPH (8 mg/mL 50 mM potassium phosphate buffer, pH 7.4). […]

[2] = Intrinsic clearance (Cli) in rat liver microsomes; format: in vitro ADME; conditions: rat liver microsome
From the text: as §1, §2, §3, §4, §5, §6, §7, §8, §9, §10, §11

RLM Cli [2]	Compound	Clb (Mouse pharmacokinetics)	HLM Cli [1]
–	O=C(NCCN1CCCC1)c1cc(NCCCCN2CCOCC2)nc2ccc(Cl)cc12 [Compound 27, 6-Chloro-2-((4-morpholinobutyl)amino)-N-(2-(pyrrolidin-1-yl)ethyl)quinoline-4-carboxamide]	4 mL min^–1 kg^–1	<1 mL min^–1 g^–1
0.8 mL min^–1 g^–1	O=C(NCCN1CCCC1)c1cc(NCCC2CCOCC2)nc2ccc(Cl)cc12 [Compound 30, 6-Chloro-N-(2-(pyrrolidin-1-yl)ethyl)-2-((2-(tetrahydro-2H-pyran-4-yl)ethyl)amino)quinoline-4-carboxamide]	34 mL min^–1 kg^–1	1 mL min^–1 g^–1
<0.5 mL min^–1 g^–1	O=C(NCCN1CCCC1)c1cc(-c2ccc(CN3CCOCC3)cc2F)nc2ccc(F)cc12 [Compound 41]	–	1.5 mL min^–1 g^–1

Compound	RLM Cli [2]	Clb (Mouse pharmacokinetics)	HLM Cli [1]
O=C(NCCN1CCCC1)c1cc(NCCCN2CCOCC2)nc2ccc(F)cc12 [Compound 25, 6-Fluoro-2-((3-morpholinopropyl)amino)-N-(2-(pyrrolidin-1-yl)ethyl)quinoline-4-carboxamide]	<0.5 mL min^–1 g^–1	14 mL min^–1 kg^–1	<0.5 mL min^–1 g^–1
